Measurements taken from article PMC11456916, “A screen for cell envelope stress uncovers an inhibitor of prolipoprotein diacylglyceryl transferase, Lgt, in Escherichiacoli” (iScience, 2024).
Entries after “also recorded” stand apart in the source; their conditions may differ. Like-named read-outs stand apart in the source and are kept apart here.

Legend:
[1] = tested on: E. coli ΔtolC-pore; assay: Selection of spontaneous resistance mutants; type: cell-based; conditions: E. coli ΔtolC-pore plated on LB agar with 4×, 8× and 16× MIC
Text: The point mutations in Lgt were the only mutations identified in all five isolates (the Illumina sequencing and BreSeq alignment files have been made available in an online data repository, https://zenodo.org/records/11068394). Lgt catalyzes the essential transfer of diacylglycerol from phosphatidyl-glycerol (PG) to the terminal cysteine of pre-prolipoproteins[48] and was also identified as a possible target in our CRISPRi screen for rcsA bioreporter induction (Figures 2E and S3). When mapped to a recently solved crystal structure of E. coli Lgt,[49] the three distinct variants identified in our resistant clones (A37T, V109A, and G138A) were found on three proximal α-helices in the substrate binding pocket of the enzyme (Figure 4B).
A culture of E. coli ΔtolC-pore was grown overnight in LB broth at 37°C with shaking, then, ∼6 × 10^8 CFU in 100 μL of LB broth was plated on LB agar plates containing 4, 8, or 16 μg/mL of MAC-0452936. Plates were then incubated at 37°C, and examined every 24 h for the emergence of resistant colonies. Colonies began to emerge after 48 h of incubation and were purified by restreaking on LB agar and LB agar containing the same concentrations of MAC-0452936 from which the colonies originally appeared. […] DNA samples were sequenced on the Illumina MiSeq platform (SeqCenter LLC) and reads were aligned to the E. coli BW25113 reference genome using Breseq[77] […]

[2] = tested on: E. coli ΔtolC-pore harboring the lgt expression plasmid pCHAP9231; assay: Ectopic lgt expression MIC (high-copy suppression, pCHAP9231); type: cell-based; conditions: pCHAP9231, 0.4% arabinose, LB
[3] = tested on: E. coli ΔlgtΔtolC-pore pCHAP9231; assay: MIC with arabinose-titrated lgt expression; type: cell-based; conditions: lgt expression driven solely by arabinose from pCHAP9231
Text: We next turned to genetic approaches to confirm the mechanism of action of MAC-0452936. […] To that end, we screened the E. coli CRISPRi collection in the ΔtolC-pore genetic background with a sub-inhibitory concentration of MAC-0452936 and measured the fitness of all 356 CRISPRi mutants (Figure 4C and Data S4). […] Depletion of Lgt by CRISPRi provided supporting evidence that MAC-0452936 targeted Lgt in E. coli; however, we sought to confirm this observation using a parallel genetic approach. We hypothesized that MAC-0452936 potency would also be affected by high-copy expression of lgt. To that end, we introduced either an arabinose inducible copy of lgt supplied on the pCHAP9231 plasmid[48] or the pBAD19s plasmid as a control into E. coli ΔtolC-pore and tested the potency of MAC-0452936 (Figure 4E). Induction of lgt expression with arabinose suppressed the activity of MAC-0452936 by about 8-fold. […] To test this hypothesis, we constructed E. coli ΔlgtΔtolC-pore with pCHAP9231[48] so that lgt expression was driven solely by arabinose from the plasmid. […] To test this observation with MAC-0452936, we introduced an lpp deletion into our screening strain E. coli ΔtolC-pore and assessed the activity of our Lgt inhibitor in this mutant background. […]

[4] = tested on: S. aureus MRSA JE2; assay: MIC assay with or without SPR741, S. aureus; type: cell-based, Staphylococcus aureus; conditions: for MIC: Staphylococcus aureus, MRSA
Experimental: We next sought to determine whether we could achieve growth inhibition of wild-type E. coli using MAC-0452936 and an antibiotic adjuvant. […] To that end, we determined the MIC of MAC-0452936 against wild-type E. coli in the presence and absence of a sub-MIC concentration of SPR741 (Figure S8B). […] We leveraged this combination to characterize the spectrum of activity of MAC-0452936 against a panel of Gram-negative pathogens (Table 2). In the presence of 8 μg/mL SPR741, we observed MAC-0452936 activity against the clinical E. coli isolates C0244 and CFT073 at 2 μg/mL as well as against Salmonella Typhimurium SL1344 at 4 μg/mL.
For MIC assays, cultures of bacteria were grown in LB broth. Overnight cultures were diluted (1:100) into fresh LB media and grown to the mid-log phase of growth (OD600 ∼0.5). Subcultures were then normalized to an OD600 of 0.1, and diluted (1:5000) into assay media. Assay plates were then incubated for 18 h at 37°C, then OD600 was measured using a Biotek Neo plate reader.

What does the source list for `COc1ccc(C(=O)O/N=C(\c2cccs2)C(C)(C)C)cc1` [MAC-0452936, (Z)-2-Pivaloylthiophene O-(4-methoxybenzoyl) oxime]?
frequency of resistance [1]: 2 x 10^−8; resistant isolates identified [1]: five independent resistant isolates were generated; suppression of activity by induction of lgt expression with arabinose [2]: about 8 fold; change of MIC with increasing arabinose concentrations [3]: dose-dependent increase in the MIC; also recorded: increase with increasing; MIC, S. aureus MRSA JE2 + 8 μg/mL SPR741 ([4]; 8 μg/mL SPR741): did not observe MAC-0452936 activity; MIC ([4]; read-out: MIC, S. aureus MRSA JE2 + 0 μg/mL SPR741): > 64 µg/mL; MIC ([4]; read-out: MIC, S. aureus MRSA JE2 + 8 μg/mL SPR741): > 64 µg/mL
